Measurements: patent US4752606A, “Pharmaceutical compositions and preparations thereof” (501 Noristan Limited, priority 1982, dated 1988)
Where a name gives a salt, the structure may show the parent alone.

Key:
[1] = mice; Shibata 1981, p. 65; cited from earlier work
[2] = oral; British Pat. No. 1,251,976, Example 10; cited from earlier work
[3] = Activity against stress induced ulcers; assay type: in vivo; settings: 100 mg/kg, rats, 24 h plaster bandage; drug 1 h before and 6 h after
Experimental: The effect of compounds on this formation of stress ulcers is assessed by applying the drugs 1 hour before encasing the animals in the bandage and again 6 hours after encasing the animals. After 24 hours, the bandage is removed and gastric damage is assessed compared to that of untreated animals.

[4] = Analgesic effect of aspirin in the presence of oleanolic acid; assay type: in vivo, rats; settings: Rattus norvegicus, read-out: ED50 (analgesic effect)
Experimental: (§1) The analgesic effect of the compound was tested in oral application to rats. 45 Minutes after application of the compound, the rats received an intraperitoneal injection of 1.0 ml 1% acetic acid. This causes a series of characteristic spasms in the untreated control animals. Analgesic effects are indicated by the reduction of the frequency of these spasms. The following results were obtained with the compound:
Measurement of the analgesic effect of the test compounds was done as set out in Test 1. The ED50 was computed for the various treatments as follows: […]

[5] = Antithrombotic effect: pulmonary thrombo-embolism in animals treated with arachnidoic acid; assay type: in vivo; settings: for effect on occurrence of pulmonary thrombo-embolism: animals treated with arachnidoic acid
From the text: Oleanolic acid has no effect in this regard.

[6] = Healing effect on thermally induced ulceration; assay type: in vivo, rats; settings: 100 mg/kg per os twice daily, days 1-13; day 14; vs untreated control
Experimental: Thermal stomach ulceration was induced on day zero by means of a heated (75° C.) stainless steel stamp (5 mm in diameter). From day one onwards to day 13 the animals were treated twice daily with oleanolic acid (100 mg/kg; per os in tragacanth). On day 14 the animals were examined for the extent of gastric damage.

[7] = Healing effect on chemically induced ulceration (acetic acid); assay type: in vivo, rats; settings: 100 mg/kg per os twice daily, days 1-10; day 11; vs untreated control
Experimental: Ulceration was induced by injecting 30% acetic acid into the stomach of the animals on day zero. From day one onwards to day 10 the animals were treated twice daily with the protective compound (100 mg/kg; per os). On day 11 the extent of gastric damage was determined.

[8] = Effect on gastric damage caused by aspirin; assay type: in vivo, rats; settings: aspirin approximately 550 mg/kg
Experimental: (§2) Gastric damage caused by irritant substances (e.g. aspirin, indomethacin or other acidic analgesic/anti-inflammatory drugs) is assessed by applying a suitable dose of the protective compound followed later by a relatively high dose of the irritant (in the case of aspirin, approximately 550 mg/kg). After a further 5 hours, the extent of gastric damage is determined.

[9] = Gastric damage (HCl - Gastrin ulcer) caused by tetragastrin; assay type: in vivo, rats; settings: 100 mg/kg/treatment per os twice daily, days 1-14; tetragastrin 100 μg/kg/day i.p.; day 15; vs untreated control
Experimental: Each animal was treated with hydrochloric acid (0,2 ml of a 20% solution; per os) on day zero. From day one onwards to day 14 the animals were treated once daily with tetragastrin (100 μg/kg/day; intraperitoneal injection) and twice daily with the protective compound (100 mg/kg/treatment; per os in tragacanth). On day 15 the extent of gastric damage was determined.

[10] = Gastric damage caused by reserpine; assay type: in vivo, rats; settings: 100 mg/kg per os; reserpine 6 mg/kg s.c.; after 16 hours; vs untreated control
Experimental: The animals were treated with oleanolic acid (per os; tragacanth vehicle) and directly thereafter with reserpine (6 mg/kg; subcutaneous injection). After 16 hours the extent of gastic damage was determined.

[11] = Effect on gastric damage caused by indomethacin; assay type: in vivo, rats
Experimental: as §2

mice [12] = test: Acute toxicity of oleanolic acid; assay type: in vivo; settings: oral route
[13] = Analgesic activity (acetic acid induced spasms); assay type: in vivo; settings: rats; for Average No. of spasms (25 mins): untreated control 43.75
Experimental: as §1, with “compound: […]” for “compound:”

[14] = Anti-inflammatory effect: carrageenan induced rat paw oedema; assay type: in vivo
Experimental: The compounds (aspirin and oleanolic acid) were administered orally.

[15] = Acute toxicity of aspirin with and without oleanolic acid; assay type: in vivo; settings: mouse, in vivo, po, mice, mixture 1:1 mass ratio
mice [16] = test: as above; assay type: in vivo; settings: oral, males, mixture 1:1 mass ratio

SMILES: CC1(C)[C@@H](O)CC[C@]2(C)[C@H]3CC=C4[C@@H]5C[C@@](C)(CO)CC[C@]5(C)CC[C@@]4(C)[C@]3(C)CC[C@@H]12 [olean-12-en-3β, 30-diol, reference compound]
- inhibiting activity against stress-induced ulceration [1]: promising inhibiting activity

SMILES: CC1(C)CC[C@]2(C(=O)O)CC[C@]3(C)C(=CC[C@@H]4[C@@]5(C)CC[C@H](O)C(C)(C)[C@@H]5CC[C@]43C)[C@@H]2C1 [Oleanolic acid, oleanolic acid]
- reduction in ulceration (glucose induced) [2]: 8%
- inhibition of the mean total ulceration score [3]: 83.5%
- ED50 ([4]; rats, oral, acetic acid spasms): 55.8 mg/kg
- effect on occurrence of pulmonary thrombo-embolism [5]: no effect
- reduction of gastric damage (thermal ulceration) [6]: 59%
- reduction of gastric damage (acetic acid ulceration) [7]: 73%
- Percentage inhibition of Aspirin induced gastric damage ([8]; 30 mg/kg): 28%
- Percentage inhibition of Aspirin induced gastric damage ([8]; 100 mg/kg): 49%
- Percentage inhibition of Aspirin induced gastric damage ([8]; 300 mg/kg): 69%
- inhibition of gastric damage (HCl - Gastrin ulcer) [9]: about 49%
- inhibition of reserpine induced gastric damage [10]: 25%
- inhibiting activity against stress-induced ulceration [1]: non-significant, if any, inhibiting activity
- Percentage inhibition of Indomethacin induced gastric damage ([11]; 10 mg/kg): 61%
- Percentage inhibition of Indomethacin induced gastric damage ([11]; 30 mg/kg): 66%
- Percentage inhibition of Indomethacin induced gastric damage ([11]; 100 mg/kg): 80%
- Percentage inhibition of Indomethacin induced gastric damage ([11]; 300 mg/kg): 86%
- doses that did not cause any deaths (mice [12]): up to 4000 mg/kg
- % Inhibition of spasms ([13]; 10 mg/kg oral): 8.6%
- Average No. of spasms (25 mins) ([13]; 10 mg/kg oral): 40.0
- % Inhibition of spasms ([13]; 31.6 mg/kg oral): 49.4%
- Average No. of spasms (25 mins) ([13]; 31.6 mg/kg oral): 22.12
- % Inhibition of spasms ([13]; 100 mg/kg oral): 65.7%
- Average No. of spasms (25 mins) ([13]; 100 mg/kg oral): 15.10

SMILES: CC1(C)CC[C@]2(C(=O)O)CC[C@]3(C)C(=CC[C@@H]4[C@@]5(C)CC[C@H](O)C(C)(C)[C@@H]5CC[C@]43C)[C@@H]2C1 [Sodium oleanolate]
- Percentage inhibition of Aspirin induced gastric damage ([8]; 30 mg/kg): 1%
- Percentage inhibition of Aspirin induced gastric damage ([8]; 100 mg/kg): 30%
- Percentage inhibition of Aspirin induced gastric damage ([8]; 300 mg/kg): 47%

SMILES: CC1(C)[C@@H](OC(=O)CCC(=O)O)CC[C@]2(C)[C@H]3C(=O)C=C4[C@@H]5C[C@@](C)(C(=O)O)CC[C@]5(C)CC[C@@]4(C)[C@]3(C)CC[C@@H]12 [Carbenoxolone sodium, disodium salt of the hemisuccinate of glycyrrhetinic acid, reference compound]
- reduction of gastric damage (acetic acid ulceration) [7]: 42%

SMILES: CC(=O)Oc1ccccc1C(=O)O [Aspirin]
- % inhibition of swelling ([14]; aspirin 25 mg/kg oral (combination: plus oleanolic acid 25 mg/kg), 1.5 hrs): 12%
- % inhibition of swelling ([14]; aspirin 25 mg/kg oral (combination: plus oleanolic acid 25 mg/kg), 3 hrs): 17%
- % inhibition of swelling ([14]; aspirin 25 mg/kg oral (combination: plus oleanolic acid 25 mg/kg), 4.5 hrs): 11%
- % inhibition of swelling ([14]; aspirin 25 mg/kg oral (combination: plus oleanolic acid 25 mg/kg), 6 hrs): 18%
- % inhibition of swelling ([14]; aspirin 50 mg/kg oral (combination: plus oleanolic acid 50 mg/kg), 1.5 hrs): 18%
- % inhibition of swelling ([14]; aspirin 50 mg/kg oral (combination: plus oleanolic acid 50 mg/kg), 3 hrs): 32%
- % inhibition of swelling ([14]; aspirin 50 mg/kg oral (combination: plus oleanolic acid 50 mg/kg), 4.5 hrs): 17%
- % inhibition of swelling ([14]; aspirin 50 mg/kg oral (combination: plus oleanolic acid 50 mg/kg), 6 hrs): 16%
- % inhibition of swelling ([14]; aspirin 100 mg/kg oral (combination: plus oleanolic acid 100 mg/kg), 1.5 hrs): 30%
- % inhibition of swelling ([14]; aspirin 100 mg/kg oral (combination: plus oleanolic acid 100 mg/kg), 3 hrs): 42%
- % inhibition of swelling ([14]; aspirin 100 mg/kg oral (combination: plus oleanolic acid 100 mg/kg), 4.5 hrs): 32%
- % inhibition of swelling ([14]; aspirin 100 mg/kg oral (combination: plus oleanolic acid 100 mg/kg), 6 hrs): 23%
- % inhibition of swelling ([14]; aspirin 200 mg/kg oral (combination: plus oleanolic acid 200 mg/kg), 1.5 hrs): 45%
- % inhibition of swelling ([14]; aspirin 200 mg/kg oral (combination: plus oleanolic acid 200 mg/kg), 3 hrs): 52%
- % inhibition of swelling ([14]; aspirin 200 mg/kg oral (combination: plus oleanolic acid 200 mg/kg), 4.5 hrs): 34%
- % inhibition of swelling ([14]; aspirin 200 mg/kg oral (combination: plus oleanolic acid 200 mg/kg), 6 hrs): 30%
- ED50 ([4]; po): 22.3 mg/kg
- effect on occurrence of pulmonary thrombo-embolism [5]: inhibits the occurrence
- ED50 ([5]; read-out: ED50 (antithrombotic effect)): 41 mg/kg
- LD50 ([15]; combined): 1800 mg/kg
- LD50 ([15]; females): 2100 mg/kg
- LD50 (mice [16]): 1110 mg/kg

SMILES: CN/C(=N/CCSCc1nc[nH]c1C)NC#N [Cimetidine, reference compound]
- inhibition of gastric damage (HCl - Gastrin ulcer) [9]: 41%
